# According to patent US10738009B2, “Pyridone amides as modulators of sodium channels” (VERTEX PHARMACEUTICALS INCORPORATED, priority 2013, dated 2020):
# Tests used:
# [1] = Microsomal stability assay, rat liver microsomes (RLM); format: in vitro ADME; conditions: rat liver microsomes 0.5 mg/mL, 1 uM substrate, 2 mM NADPH, 37° C., vs time zero control
# Description: (§1) Microsomal Stability Assay. Compounds were incubated at 37° C. and shaken for 30 minutes in a phosphate buffered solution with either rat or human liver microsomes and the cofactor NADPH. A time zero control was similarly prepared, however with NADPH excluded. The final incubation concentrations were 1 uM substrate (0.2% DMSO), 0.5 mg/mL liver microsome, 2 mM NADPH, and 0.1 M phosphate. Reactions were quenched and proteins precipitated with the addition of 2 volume equivalents of ice cold acetonitrile containing an internal standard. Following a centrifugation step, aliquots from the quenched incubations were further diluted with 4 volume equivalents of a 50% aqueous methanol solution and then subjected to LC/MS/MS analysis for quantitation of parent compound. Microsome stability values were calculated as the percent of substrate remaining after 30 minutes referenced against the time zero control.
# (§2) Microsomal stability in rat and human liver microsomes were determined for selected compounds of the present invention using the above assay. Table 4 provides the human liver microsomes (“HLM”) and rat liver microsomes (“RLM”) stability data as the percent of compound remaining after 30 minutes referenced against the time zero control.
# [2] = Microsomal stability assay, human liver microsomes (HLM); format: in vitro ADME; conditions: human liver microsomes 0.5 mg/mL, 1 uM substrate, 2 mM NADPH, 37° C., vs time zero control
# Description: as §1, §2
RLM (% remaining @ 30 minutes) [1] [%],HLM (% remaining @ 30 minutes) [2] [%],SMILES
88,–,"Cc1cc(F)ccc1Oc1cc(Cl)ccc1C(=O)Nc1cc[nH]c(=O)c1 [Compound 20, 4-chloro-2-(4-fluoro-2-methylphenoxy)-N-(2-oxo-1,2-dihydropyridin-4-yl)benzamide]"
–,100,"O=C(Nc1cc[nH]c(=O)c1)c1cc(C(F)(F)F)ccc1Oc1ccc(OC(F)(F)F)cc1 [Compound 72, N-(2-oxo-1,2-dihydropyridin-4-yl)-2-(4-(trifluoromethoxy)phenoxy)-5-(trifluoromethyl)benzamide]"
100,–,"O=C(Nc1cc[nH]c(=O)c1)c1c(Oc2ccc(F)cc2F)cc(C(F)(F)F)cc1C(F)(F)F [Compound 152, 2-(2,4-difluorophenoxy)-N-(2-oxo-1,2-dihydropyridin-4-yl)-4,6-bis(trifluoromethyl)benzamide]"
98,–,"O=C(Nc1cc[nH]c(=O)c1)c1ccc(C(F)(F)F)cc1Oc1ccc(OC(F)F)cc1 [Compound 82, 2-(4-(difluoromethoxy)phenoxy)-N-(2-oxo-1,2-dihydropyridin-4-yl)-4-(trifluoromethyl)benzamide]"
–,100,"O=C(Nc1cc[nH]c(=O)c1)c1cc(C(F)(F)F)ccc1Oc1ccc(F)cc1 [Compound 2, 2-(4-fluorophenoxy)-N-(2-oxo-1,2-dihydropyridin-4-yl)-5-(trifluoromethyl)benzamide]"
95,90,"O=C(Nc1cc[nH]c(=O)c1)c1cc(C(F)(F)F)ccc1Oc1ccccc1OC(F)(F)F [Compound 75, N-(2-oxo-1,2-dihydropyridin-4-yl)-2-(2-(trifluoromethoxy)phenoxy)-5-(trifluoromethyl)benzamide]"
–,100,"O=C(Nc1cc[nH]c(=O)c1)c1cc(Cl)ccc1Oc1ccc(F)cc1Cl [Compound 66, 5-chloro-2-(2-chloro-4-fluorophenoxy)-N-(2-oxo-1,2-dihydropyridin-4-yl)benzamide]"
89,97,"O=C(Nc1cc[nH]c(=O)c1)c1cc(F)ccc1Oc1ccc(OC(F)(F)F)cc1 [Compound 101, 5-fluoro-N-(2-oxo-1,2-dihydropyridin-4-yl)-2-(4-(trifluoromethoxy)phenoxy)benzamide]"
100,–,"O=C(Nc1cc[nH]c(=O)c1)c1cc(F)c(Cl)cc1Oc1ccc(F)cc1Cl [Compound 109, 4-chloro-2-(2-chloro-4-fluorophenoxy)-5-fluoro-N-(2-oxo-1,2-dihydropyridin-4-yl)benzamide]"
–,100,"O=C(Nc1cc[nH]c(=O)c1)c1ccc(C(F)(F)C(F)(F)F)cc1Oc1ccc(F)cc1 [Compound 88, 2-(4-fluorophenoxy)-N-(2-oxo-1,2-dihydropyridin-4-yl)-4-(perfluoroethyl)benzamide]"
110,100,"O=C(Nc1cc[nH]c(=O)c1)c1cc(OC(F)(F)F)ccc1Oc1ccc(F)cc1F [Compound 33, 2-(2,4-difluorophenoxy)-N-(2-oxo-1,2-dihydropyridin-4-yl)-5-(trifluoromethoxy)benzamide]"
97,100,"O=C(Nc1cc[nH]c(=O)c1)c1cc(OC(F)(F)F)ccc1Oc1ccc(F)cc1Cl [Compound 37, 2-(2-chloro-4-fluorophenoxy)-N-(2-oxo-1,2-dihydropyridin-4-yl)-5-(trifluoromethoxy)benzamide]"
90,91,"COc1cc(F)ccc1Oc1cc(C(F)(F)C(F)(F)F)ccc1C(=O)Nc1cc[nH]c(=O)c1 [Compound 111, 2-(4-fluoro-2-methoxyphenoxy)-N-(2-oxo-1,2-dihydropyridin-4-yl)-4-(perfluoroethyl)benzamide]"
82,91,"COc1cc(F)ccc1Oc1cc(Cl)c(Cl)cc1C(=O)Nc1cc[nH]c(=O)c1 [Compound 114, 4,5-dichloro-2-(4-fluoro-2-methoxyphenoxy)-N-(2-oxo-1,2-dihydropyridin-4-yl)benzamide]"
50,38,"CC(C)(C)c1ccc(C(=O)Nc2ccc(=O)[nH]c2)c(Oc2ccc(C(F)(F)F)nc2)c1 [Compound 142, 4-(tert-butyl)-N-(6-oxo-1,6-dihydropyridin-3-yl)-2-((6-(trifluoromethyl)pyridin-3-yl)oxy)benzamide]"
95,–,"COc1ccc(Oc2cc(Cl)c(Cl)cc2C(=O)Nc2cc[nH]c(=O)c2)cc1F [Compound 115, 4,5-dichloro-2-(3-fluoro-4-methoxyphenoxy)-N-(2-oxo-1,2-dihydropyridin-4-yl)benzamide]"

# The remaining lines, values behind:
SMILES,RLM (% remaining @ 30 minutes) [1] [%],HLM (% remaining @ 30 minutes) [2] [%]
"O=C(Nc1cc[nH]c(=O)c1)c1ccc(C(F)(F)F)cc1Oc1ccc(OC(F)(F)F)cc1 [Compound 79, N-(2-oxo-1,2-dihydropyridin-4-yl)-2-(4-(trifluoromethoxy)phenoxy)-4-(trifluoromethyl)benzamide]",100,–
"COCCOc1ccc(Oc2cc(C(F)(F)F)ccc2C(=O)Nc2cc[nH]c(=O)c2)cc1 [Compound 8, 2-(4-(2-methoxyethoxy)phenoxy)-N-(2-oxo-1,2-dihydropyridin-4-yl)-4-(trifluoromethyl)benzamide]",86,90
"COc1cc(F)ccc1Oc1ccc(C(F)(F)F)cc1C(=O)Nc1cc[nH]c(=O)c1 [Compound 30, 2-(4-fluoro-2-methoxyphenoxy)-N-(2-oxo-1,2-dihydropyridin-4-yl)-5-(trifluoromethyl)benzamide]",78,76
"O=C(Nc1cc[nH]c(=O)c1)c1ccc(C(F)(F)F)cc1OCC1CCCC1 [Compound 120, 2-(cyclopentylmethoxy)-N-(2-oxo-1,2-dihydropyridin-4-yl)-4-(trifluoromethyl)benzamide]",79,87
"CCOc1ccc(Oc2ccc(C(F)(F)F)cc2C(=O)Nc2cc[nH]c(=O)c2)cc1 [Compound 44, 2-(4-ethoxyphenoxy)-N-(2-oxo-1,2-dihydropyridin-4-yl)-5-(trifluoromethyl)benzamide]",84,93
"Cc1cc(F)ccc1Oc1cc(C(F)(F)F)ccc1C(=O)Nc1cc[nH]c(=O)c1 [Compound 10, 2-(4-fluoro-2-methylphenoxy)-N-(2-oxo-1,2-dihydropyridin-4-yl)-4-(trifluoromethyl)benzamide]",82,93
"Cc1cc(F)ccc1Oc1ccc(Cl)cc1C(=O)Nc1cc[nH]c(=O)c1 [Compound 68, 5-chloro-2-(4-fluoro-2-methylphenoxy)-N-(2-oxo-1,2-dihydropyridin-4-yl)benzamide]",72,98
"O=C(Nc1cc[nH]c(=O)c1)c1cc(C(F)(F)F)ccc1Oc1ccccc1OC(F)F [Compound 76, 2-(2-(difluoromethoxy)phenoxy)-N-(2-oxo-1,2-dihydropyridin-4-yl)-5-(trifluoromethyl)benzamide]",93,97
"O=C(Nc1cc[nH]c(=O)c1)c1ccc(C(F)(F)F)cc1OCCCC(F)(F)F [Compound 123, N-(2-oxo-1,2-dihydropyridin-4-yl)-2-(4,4,4-trifluorobutoxy)-4-(trifluoromethyl)benzamide]",98,–
"Cc1cc(F)ccc1Oc1ccc(C(F)(F)F)cc1C(=O)Nc1cc[nH]c(=O)c1 [Compound 31, 2-(4-fluoro-2-methylphenoxy)-N-(2-oxo-1,2-dihydropyridin-4-yl)-5-(trifluoromethyl)benzamide]",91,92
"Cc1ccccc1Oc1ccc(C(F)(F)F)cc1C(=O)Nc1cc[nH]c(=O)c1 [Compound 28, N-(2-oxo-1,2-dihydropyridin-4-yl)-2-(o-tolyloxy)-5-(trifluoromethyl)benzamide]",70,79
"O=C(Nc1cc[nH]c(=O)c1)c1ccc(C(F)(F)F)cc1Oc1ccc(F)cc1F [Compound 7, 2-(2,4-difluorophenoxy)-N-(2-oxo-1,2-dihydropyridin-4-yl)-4-(trifluoromethyl)benzamide]",99,97
